Test systems include EKVX NSCLC; MALME-3M melanoma; MDA-N; OVCAR-3 ovarian; RXF 393 renal; SF-268 CNS; SF-539 CNS; SK-OV-3 ovarian; SN12C renal; SNB-19 CNS; U251 CNS.
Test in all cases: NCI anticancer screen, dose series, 48 h

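Results reflect a 48-hour exposure of cells in 96-well plates to compound at five concentrations. The concentration for full growth arrest is given as TGI.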 Bounds are passed on as bounds.

The values that follow come from PubChem BioAssay (NCI).

As to `CN(C)CC1COC2Cc3ccccc3C1O2` (configuration not stated), the TGI in the experiment on EKVX NSCLC, with MALME-3M melanoma, with MDA-N, in the experiment with OVCAR-3 ovarian, in the experiment on RXF 393 renal and in the experiment on SF-268 CNS was over 100 µM each time. Besides, the TGI with SF-539 CNS, in the experiment on SK-OV-3 ovarian, with SN12C renal, in the experiment on SNB-19 CNS and in the experiment on U251 CNS was over 100 µM throughout.

Consider `CC(C)OP(=O)(OC(C)C)/C(C#N)=C/c1ccco1`, for which the TGI with EKVX NSCLC, with MALME-3M melanoma, in the experiment with MDA-N, in the experiment with OVCAR-3 ovarian, with RXF 393 renal and in the experiment on SF-268 CNS was over 100 µM in each case. The TGI in the experiment on SF-539 CNS, in the experiment with SK-OV-3 ovarian, with SN12C renal, in the experiment on SNB-19 CNS and in the experiment on U251 CNS was over 100 µM each time.

Turning to `Cc1nn(C(=O)c2ccncc2)c2c1C(c1ccccc1)SC(N)=N2` (configuration not stated), the TGI in the experiment on EKVX NSCLC, in the experiment on MALME-3M melanoma, with MDA-N, in the experiment on OVCAR-3 ovarian, in the experiment with RXF 393 renal and in the experiment with SF-268 CNS was over 10 µM throughout. In addition, the TGI in the experiment on SF-539 CNS, in the experiment on SK-OV-3 ovarian, with SN12C renal, in the experiment with SNB-19 CNS and in the experiment with U251 CNS was over 10 µM each time.

`Cc1cccc(CC(Cc2c(C)cccc2C(=O)O)C(=O)O)c1` (configuration not stated): the TGI in the experiment with EKVX NSCLC, in the experiment with MALME-3M melanoma, with MDA-N, in the experiment on OVCAR-3 ovarian, in the experiment on RXF 393 renal and in the experiment with SF-268 CNS was over 100 µM throughout. Besides, the TGI in the experiment with SF-539 CNS, with SK-OV-3 ovarian, with SN12C renal, with SNB-19 CNS and in the experiment with U251 CNS was over 100 µM each time.

With `Nc1ncc(Cl)c(NCC2(CO)CC(CCc3ccccc3)C2)n1` (configuration not stated), the TGI with EKVX NSCLC, in the experiment on MALME-3M melanoma, in the experiment on MDA-N, with OVCAR-3 ovarian, with RXF 393 renal and with SF-268 CNS was over 100 µM in each case. For the same molecule, the TGI with SF-539 CNS, in the experiment on SK-OV-3 ovarian, in the experiment on SN12C renal, with SNB-19 CNS and in the experiment with U251 CNS was over 100 µM each time.

With `CCCC(=O)O[C@H]1C=C2C[C@@]34SS[C@]5(CC6=C[C@H](OC(C)=O)[C@@H]7O[C@@H]7[C@H]6N5C3=O)C(=O)N4[C@@H]2[C@H]2O[C@H]21`, the TGI was found to be 0.0294 µM in the experiment with EKVX NSCLC; 0.0239 µM in the experiment on MALME-3M melanoma; 0.0314 µM with MDA-N; 0.0314 µM in the experiment on OVCAR-3 ovarian; 0.0713 µM in the experiment with RXF 393 renal; 0.119 µM in the experiment with SF-268 CNS. Further, the TGI is 0.932 µM with SF-539 CNS; 3.21 µM with SK-OV-3 ovarian; 0.0111 µM in the experiment with SN12C renal; 1.43 µM in the experiment with SNB-19 CNS; 0.113 µM in the experiment on U251 CNS.

Consider `CC=CCOc1cc(NC(=S)OC(C)C)ccc1Cl` (mixture of isomers), for which the TGI in the experiment on EKVX NSCLC was determined as 36.6 µM; in the experiment on MALME-3M melanoma it was 29.6 µM; in the experiment with MDA-N, 35.4 µM; with OVCAR-3 ovarian it was 38.1 µM; in the experiment with RXF 393 renal it was 30.8 µM; in the experiment with SF-268 CNS, 37.9 µM. Further, the TGI turned out to be 36.1 µM in the experiment with SF-539 CNS; 45.8 µM in the experiment with SK-OV-3 ovarian; 29 µM with SN12C renal; 56.6 µM in the experiment with SNB-19 CNS; 32.8 µM with U251 CNS.

Regarding `Cc1cc(-c2nc3ccccc3s2)ccc1N`, the TGI in the experiment with EKVX NSCLC was over 95.3 µM; with MALME-3M melanoma, over 81.5 µM; in the experiment on MDA-N it was over 83.6 µM; with OVCAR-3 ovarian, over 86.6 µM; with RXF 393 renal it was 98.7 µM; in the experiment with SF-268 CNS it was over 83.8 µM. The TGI in the experiment on SF-539 CNS was over 91.6 µM; in the experiment with SK-OV-3 ovarian, over 100 µM; in the experiment on SN12C renal it was over 77.9 µM; in the experiment with SNB-19 CNS it was over 100 µM; in the experiment on U251 CNS it was over 88.5 µM.

In the case of `CCN(CC)CCNC(=O)c1ccc(I)cc1`, the TGI in the experiment with EKVX NSCLC, with MALME-3M melanoma, with MDA-N, with OVCAR-3 ovarian, in the experiment with RXF 393 renal and in the experiment on SF-268 CNS was over 100 µM each time. In addition, the TGI in the experiment on SF-539 CNS, in the experiment with SK-OV-3 ovarian, in the experiment on SN12C renal, with SNB-19 CNS and in the experiment on U251 CNS was over 100 µM each time.

With `Brc1c(C#CCC(c2ccccc2)(c2ccccc2)c2ccccc2)ccc(C#CCC(c2ccccc2)(c2ccccc2)c2ccccc2)c1Br`, the TGI in the experiment with EKVX NSCLC, in the experiment on MALME-3M melanoma, with MDA-N, with OVCAR-3 ovarian, in the experiment on RXF 393 renal and in the experiment on SF-268 CNS was over 100 µM throughout. For the same molecule, the TGI in the experiment on SF-539 CNS, with SK-OV-3 ovarian, with SN12C renal, with SNB-19 CNS and in the experiment with U251 CNS was over 100 µM each time.

On to `O=C1N2CCc3c([nH]c4ccccc34)C23CC2CCCCC12S3` (configuration not stated), for which the TGI with EKVX NSCLC, in the experiment on MALME-3M melanoma, in the experiment with MDA-N, with OVCAR-3 ovarian, in the experiment on RXF 393 renal and in the experiment with SF-268 CNS was over 100 µM throughout. Moreover, the TGI in the experiment with SF-539 CNS, with SK-OV-3 ovarian, with SN12C renal, with SNB-19 CNS and in the experiment on U251 CNS was over 100 µM each time.

Take `CCOc1ccc(NC(=O)/C(=N\NC(C)(C)C)C2C(=O)Nc3ccccc3S2=O)cc1` (configuration not stated): the TGI in the experiment on EKVX NSCLC, in the experiment with MALME-3M melanoma, in the experiment on MDA-N, in the experiment on OVCAR-3 ovarian, with RXF 393 renal and in the experiment with SF-268 CNS was over 100 µM each time. Besides, the TGI with SF-539 CNS, in the experiment on SK-OV-3 ovarian, with SN12C renal, in the experiment on SNB-19 CNS and with U251 CNS was over 100 µM each time.

For the molecule `Cc1cc(N=Nc2c(O)ccc3ccccc23)ccc1N=Nc1cccc([N+](C)(C)C)c1`, the TGI was 62.1 µM in the experiment on EKVX NSCLC; 35.2 µM with MALME-3M melanoma; over 100 µM in the experiment on MDA-N; 41 µM with OVCAR-3 ovarian; 48.7 µM with RXF 393 renal; 57.1 µM in the experiment on SF-268 CNS. Further, the TGI is 22.3 µM in the experiment on SF-539 CNS; over 75.3 µM in the experiment on SK-OV-3 ovarian; over 80 µM in the experiment with SN12C renal; 26 µM in the experiment with SNB-19 CNS; 14.1 µM in the experiment with U251 CNS.

On to `CC1=CCC2C3(C)CCC2(C(C)C)C1C3` (configuration not stated) (tested in a mixture with another compound), for which the TGI is 50.9 µM in the experiment with EKVX NSCLC; over 100 µM in the experiment on MALME-3M melanoma; over 100 µM in the experiment with MDA-N; 30.2 µM in the experiment with OVCAR-3 ovarian; 33.2 µM in the experiment with RXF 393 renal; 36.1 µM with SF-268 CNS. Besides, the TGI with SF-539 CNS was 87.4 µM; in the experiment on SK-OV-3 ovarian, over 100 µM; in the experiment on SN12C renal it was 36.2 µM; with SNB-19 CNS, 33.8 µM; in the experiment on U251 CNS, 50.8 µM.

As for `CC(C)(C)OC(=O)N(O)CCCn1cnc2c(N)ncnc21`, the TGI in the experiment with EKVX NSCLC, in the experiment with MALME-3M melanoma, in the experiment on MDA-N, with OVCAR-3 ovarian, in the experiment on RXF 393 renal and in the experiment on SF-268 CNS was over 100 µM in each case. In addition, the TGI in the experiment on SF-539 CNS, with SK-OV-3 ovarian, in the experiment on SN12C renal, in the experiment with SNB-19 CNS and with U251 CNS was over 100 µM each time.

For the molecule `O=C(N/N=C/c1ccc([N+](=O)[O-])o1)c1ccc(C(=O)N/N=C/c2ccc([N+](=O)[O-])o2)cc1`, the TGI with EKVX NSCLC was over 100 µM; in the experiment with MALME-3M melanoma, 48.7 µM; in the experiment on MDA-N it was 50.2 µM; in the experiment on OVCAR-3 ovarian, 73.9 µM; with RXF 393 renal, over 100 µM; in the experiment with SF-268 CNS, over 100 µM. Moreover, the TGI was 38.3 µM with SF-539 CNS; over 100 µM in the experiment on SK-OV-3 ovarian; over 100 µM in the experiment with SN12C renal; over 100 µM in the experiment on SNB-19 CNS; over 100 µM in the experiment on U251 CNS.

Regarding `COc1cc(C)cc2c1c(=O)c1ccccc1n2C`, the TGI in the experiment on EKVX NSCLC is over 100 µM; in the experiment with MALME-3M melanoma it was over 100 µM; in the experiment on MDA-N, over 100 µM; in the experiment on OVCAR-3 ovarian, over 100 µM; in the experiment with RXF 393 renal, 73.8 µM; in the experiment on SF-268 CNS it was over 100 µM. The TGI in the experiment on SF-539 CNS was 38.4 µM; in the experiment on SK-OV-3 ovarian it was over 100 µM; in the experiment with SN12C renal it was over 100 µM; in the experiment with SNB-19 CNS it was over 100 µM; in the experiment with U251 CNS, 96.1 µM.
